# Laboratory results: publication PMC5993284, “Peptide inhibitors of the anaphase promoting-complex that cause sensitivity to microtubule poison” (PLoS ONE, 2018)
# Ends that are not written are not given here. * marks the point of attachment. Biotin = O=C1N[C@H]2[C@H](CS[C@H]2CCCCC(=O)*)N1
# Tested on: APC/C
# Test: Biotinylated peptide pull-down of purified APC/C, Western blot
# Assay type: binding, Saccharomyces cerevisiae
# Details: 20 μM biotinylated peptide, purified yeast APC/C, 1 h at 4 °C, streptavidin/Avidin beads, n = 3
# Experimental: For APC/C purification, the APC/C which contain Cdc16-TAP-tag was isolated from 2 mL arrested yeast lysate by 120 μL IgG sepharose 6 Fast Flow beads (GE Healthcare Life Sciences) and incubate for 2 h at 4 °C on a rotating wheel. Beads were collected washed with 5 mL of APC/C wash buffer (200 mM Hepes pH8.0, 150 mM NaCl, 10% glycerol). Beads were resuspended in 150 μL of APC/C wash buffer contain 17.6 units of AcTEV protease (Invitrogen, Carlsbad, CA) at 4°C for 3 h with pipetting every 20 minutes. The purified APC/C was collected in the flow-through.
# For APC/C binding assays, 20 μM biotinylated peptides or 20 μM peptides only as a negative control were incubated with purified APC/C and 100 μL APC/C wash buffer which contains phosphatase inhibitors (200 mM Hepes pH 8.0, 150 mM NaCl, 10% glycerol, 10 mM NaF, 1 mM NaVO4, 5 mM Na-pyrophosphate, 10 mM 2-glycerol phosphate) for 1 h at 4 °C. The mixtures were applied to 120 μL streptavidin beads (Dynabeads MyOne Streptavidin T1, Invitrogen) for 30 min at 4 °C with gentle pipetting every 10 min. Beads were washed with 1 mL of PBST buffer (Phosphate buffer saline and 0.1% Tween 20) three times SDS-PAGE protein sample was added directly. For APC/C binding competition experiments, the biotinylated peptide and 10-fold excess non-biotinylated peptides were added to purified APC/C at same time.
# Free D-biotin in 10% DMSO was used for the control binding assays. For pre-coating APC/C with biotin, a modified APC/C purification was performed. 2 mL yeast lysate was incubated with 120 μL IgG Sepharose beads and additional 20.4 μM free biotin or non-biotin solvent as a positive control was added and samples were incubated for 2 h at 4 °C on a rotating wheel. Purified pre-coated APC/C was then removed from the IgG Sepharose following the standard purification procedure. 20 μM biotinylated peptides or 20 μM peptides as a negative control were incubated with pre-coated APC/C and 100 μL APC/C wash buffer which contain phosphatase inhibitors for 1 h at 4 °C. In addition, 20 μM biotinylated peptide was added and incubated with pre-coated APC/C in a non-biotin containing solvent as positive control. Pre-coated APC/C binding procedures were same as above. For pre-coating streptavidin beads with biotin, streptavidin beads were washed in the presence of 10.2 nmol/mL D-biotin in PBST buffer or non-biotin solvent as a positive control before use. Pre-coated streptavidin beads were incubated with purified APC/C-peptide complexes with an extra […] biotin for 30 minutes with gentle pipetting every 10 min at 4 °C.
# Proteins were separated in SDS-PAGE gels and then were transferred to PVDF membrane. Blocking was performed by incubating samples in 20 mL PBST with 5% milk at 4 °C. Rabbit anti-tap (Thermo, CAB1001) was used as primary antibodies at a 1:1000 dilution and incubated for 2 hours at RT. Anti-rabbit HRP (Jackson, USA) was then used as secondary antibody at 1:5000 dilution and incubate for 1 hr at RT. Chemiluminescence signals were detected using an ImageQuant LAS 4000 (GE Healthcare Bio-Sciences, USA). For cell cycle timing Western blots anti-MYC and anti-Actin antibodies were employed (ABCAM, UK).
substance,measurement,value
DQ36-mut1: DQ36-mut1 where all 5 RILQY residues were changed to alanine AAAAA (Biotin-DMNKAAAAAMPEPPKCSSLRQKSYIMKKRTHYSYQQ),binding to APC/C (in words),maintained the ability to pull-down APC/C
